Tested on: HEK293 cells
Assay: Preliminary screening as DNA vectors, GFP transfection of HEK293 cells
Format: cell-based
Conditions: amino lipid/DOPE liposome with 75 ng plasmid DNA (psin-EGFP-IRES-Puro); number of GFP-expressing cells divided by total nuclei (Hoechst)
How it was run: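 HEK293 cells in DMEM/10% FBS transfected with 75 ng EGFP plasmid per well complexed with amino lipid/DOPE liposomes in pH 5.6 sodium acetate. Hoechst nuclear stain added 20-24 h post-transfection, then cells cultured another 20-24 h. Confocal imaging gives GFP-positive cells as % of total nuclei.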

Row | Compound | Absolute DNA transfection efficiency in HEK293 cells [%]
1 | CCCCCCCCCCCCNc1nc(NCCN(CC)CC)nc(SCCCCCCCCCCCC)n1 [S12N12 D7] | 3.7
2 | CCCCCCCCCCCCNc1nc(NCCCN2CCOCC2)nc(SCCCCCCCCCCCC)n1 [S12N12 D8] | 0.0
3 | CCCCCCCCCCCCNc1nc(NCCCN2CCN(C)CC2)nc(SCCCCCCCCCCCC)n1 [S12N12 D9] | 5.1
4 | CCCCCCCCCCCCNc1nc(NCC2CCN(C)CC2)nc(SCCCCCCCCCCCC)n1 [S12N12 D10] | 9.3
5 | CCCCCCCCCCCCCNc1nc(NCCN(C)C)nc(SCCCCCCCCCCCC)n1 [S12N13 D1] | 1.4
6 | CCCCCCCCCCCCCNc1nc(NCCN2CCOCC2)nc(SCCCCCCCCCCCC)n1 [S12N13 D2] | 0.0
7 | CCCCCCCCCCCCCNc1nc(NCCN2CCCC2)nc(SCCCCCCCCCCCC)n1 [S12N13 D3] | 3.6
8 | CCCCCCCCCCCCCNc1nc(NCCN2CCCCC2)nc(SCCCCCCCCCCCC)n1 [S12N13 D4] | 0.5
9 | CCCCCCCCCCCCCNc1nc(NCCN2CCN(C)CC2)nc(SCCCCCCCCCCCC)n1 [S12N13 D5] | 1.5
10 | CCCCCCCCCCCCCNc1nc(NCCCN(C)C)nc(SCCCCCCCCCCCC)n1 [S12N13 D6] | 7.0
11 | CCCCCCCCCCCCCNc1nc(NCCN(CC)CC)nc(SCCCCCCCCCCCC)n1 [S12N13 D7] | 12.9
12 | CCCCCCCCCCCCCNc1nc(NCCCN2CCOCC2)nc(SCCCCCCCCCCCC)n1 [S12N13 D8] | 0.0
13 | CCCCCCCCCCCCCNc1nc(NCCCN2CCN(C)CC2)nc(SCCCCCCCCCCCC)n1 [S12N13 D9] | 2.1
14 | CCCCCCCCCCCCCNc1nc(NCC2CCN(C)CC2)nc(SCCCCCCCCCCCC)n1 [S12N13 D10] | 2.4
15 | CCCCCCCCCCCCCCCNc1nc(NCCN(C)C)nc(SCCCCCCCCCCCC)n1 [S12N15 D1] | 0.8
16 | CCCCCCCCCCCCCCCNc1nc(NCCN2CCOCC2)nc(SCCCCCCCCCCCC)n1 [S12N15 D2] | 0.0
17 | CCCCCCCCCCCCCCCNc1nc(NCCN2CCCC2)nc(SCCCCCCCCCCCC)n1 [S12N15 D3] | 2.0
18 | CCCCCCCCCCCCCCCNc1nc(NCCN2CCCCC2)nc(SCCCCCCCCCCCC)n1 [S12N15 D4] | 1.0
19 | CCCCCCCCCCCCCCCNc1nc(NCCN2CCN(C)CC2)nc(SCCCCCCCCCCCC)n1 [S12N15 D5] | 0.2
20 | CCCCCCCCCCCCCCCNc1nc(NCCCN(C)C)nc(SCCCCCCCCCCCC)n1 [S12N15 D6] | 0.9
21 | CCCCCCCCCCCCCCCNc1nc(NCCN(CC)CC)nc(SCCCCCCCCCCCC)n1 [S12N15 D7] | 3.6

Row | Compound | Absolute DNA transfection efficiency in HEK293 cells [%]
22 | CCCCCCCCCCCCCCCNc1nc(NCCCN2CCOCC2)nc(SCCCCCCCCCCCC)n1 [S12N15 D8] | 0.0
23 | CCCCCCCCCCCCCCCNc1nc(NCCCN2CCN(C)CC2)nc(SCCCCCCCCCCCC)n1 [S12N15 D9] | 0.2
24 | CCCCCCCCCCCCCCCNc1nc(NCC2CCN(C)CC2)nc(SCCCCCCCCCCCC)n1 [S12N15 D10] | 4.0
25 | CCCCCCCCCCCCCCCCNc1nc(NCCN(C)C)nc(SCCCCCCCCCCCC)n1 [S12N16 D1] | 0.5
26 | CCCCCCCCCCCCCCCCNc1nc(NCCN2CCOCC2)nc(SCCCCCCCCCCCC)n1 [S12N16 D2] | 0.0
27 | CCCCCCCCCCCCCCCCNc1nc(NCCN2CCCC2)nc(SCCCCCCCCCCCC)n1 [S12N16 D3] | 2.6
28 | CCCCCCCCCCCCCCCCNc1nc(NCCN2CCCCC2)nc(SCCCCCCCCCCCC)n1 [S12N16 D4] | 0.7
29 | CCCCCCCCCCCCCCCCNc1nc(NCCN2CCN(C)CC2)nc(SCCCCCCCCCCCC)n1 [S12N16 D5] | 0.7
30 | CCCCCCCCCCCCCCCCNc1nc(NCCCN(C)C)nc(SCCCCCCCCCCCC)n1 [S12N16 D6] | 2.1
31 | CCCCCCCCCCCCCCCCNc1nc(NCCN(CC)CC)nc(SCCCCCCCCCCCC)n1 [S12N16 D7] | 3.6
32 | CCCCCCCCCCCCCCCCNc1nc(NCCCN2CCOCC2)nc(SCCCCCCCCCCCC)n1 [S12N16 D8] | 0.0
33 | CCCCCCCCCCCCCCCCNc1nc(NCCCN2CCN(C)CC2)nc(SCCCCCCCCCCCC)n1 [S12N16 D9] | 0.4
34 | CCCCCCCCCCCCCCCCNc1nc(NCC2CCN(C)CC2)nc(SCCCCCCCCCCCC)n1 [S12N16 D10] | 2.4
35 | CCCCCCCCCCCCCCCCCCNc1nc(NCCN(C)C)nc(SCCCCCCCCCCCC)n1 [S12N18 D1] | 0.7
36 | CCCCCCCCCCCCCCCCCCNc1nc(NCCN2CCOCC2)nc(SCCCCCCCCCCCC)n1 [S12N18 D2] | 0.0
37 | CCCCCCCCCCCCCCCCCCNc1nc(NCCN2CCCC2)nc(SCCCCCCCCCCCC)n1 [S12N18 D3] | 3.9
38 | CCCCCCCCCCCCCCCCCCNc1nc(NCCN2CCCCC2)nc(SCCCCCCCCCCCC)n1 [S12N18 D4] | 0.3
39 | CCCCCCCCCCCCCCCCCCNc1nc(NCCN2CCN(C)CC2)nc(SCCCCCCCCCCCC)n1 [S12N18 D5] | 0.6
40 | CCCCCCCCCCCCCCCCCCNc1nc(NCCCN(C)C)nc(SCCCCCCCCCCCC)n1 [S12N18 D6] | 0.6
41 | CCCCCCCCCCCCCCCCCCNc1nc(NCCN(CC)CC)nc(SCCCCCCCCCCCC)n1 [S12N18 D7] | 0.3
42 | CCCCCCCCCCCCCCCCCCNc1nc(NCCCN2CCOCC2)nc(SCCCCCCCCCCCC)n1 [S12N18 D8] | 0.0

Row | Compound | Absolute DNA transfection efficiency in HEK293 cells [%]
43 | CCCCCCCCCCCCCCCCCCNc1nc(NCCCN2CCN(C)CC2)nc(SCCCCCCCCCCCC)n1 [S12N18 D9] | 0.2
44 | CCCCCCCCCCCCCCCCCCNc1nc(NCC2CCN(C)CC2)nc(SCCCCCCCCCCCC)n1 [S12N18 D10] | 3.7
45 | CCCCCCCCCCCCSc1nc(NCCN(C)C)nc(N(CCCCCCCCCCCC)CCCCCCCCCCCC)n1 [S12^2N12 D1] | 0.0
46 | CCCCCCCCCCCCSc1nc(NCCN2CCOCC2)nc(N(CCCCCCCCCCCC)CCCCCCCCCCCC)n1 [S12^2N12 D2] | 0.0
47 | CCCCCCCCCCCCSc1nc(NCCN2CCCC2)nc(N(CCCCCCCCCCCC)CCCCCCCCCCCC)n1 [S12^2N12 D3] | 0.0
48 | CCCCCCCCCCCCSc1nc(NCCN2CCCCC2)nc(N(CCCCCCCCCCCC)CCCCCCCCCCCC)n1 [S12^2N12 D4] | 0.0
49 | CCCCCCCCCCCCSc1nc(NCCN2CCN(C)CC2)nc(N(CCCCCCCCCCCC)CCCCCCCCCCCC)n1 [S12^2N12 D5] | 0.3
50 | CCCCCCCCCCCCSc1nc(NCCCN(C)C)nc(N(CCCCCCCCCCCC)CCCCCCCCCCCC)n1 [S12^2N12 D6] | 0.3
51 | CCCCCCCCCCCCSc1nc(NCCN(CC)CC)nc(N(CCCCCCCCCCCC)CCCCCCCCCCCC)n1 [S12^2N12 D7] | 0.1
52 | CCCCCCCCCCCCSc1nc(NCCCN2CCOCC2)nc(N(CCCCCCCCCCCC)CCCCCCCCCCCC)n1 [S12^2N12 D8] | 0.0
53 | CCCCCCCCCCCCSc1nc(NCCCN2CCN(C)CC2)nc(N(CCCCCCCCCCCC)CCCCCCCCCCCC)n1 [S12^2N12 D9] | 0.1
54 | CCCCCCCCCCCCSc1nc(NCC2CCN(C)CC2)nc(N(CCCCCCCCCCCC)CCCCCCCCCCCC)n1 [S12^2N12 D10] | 0.1
55 | CCCCCCCCCCCCCCSc1nc(NCCCCCC)nc(NCCN(C)C)n1 [S14N6 D1] | 24.1
56 | CCCCCCCCCCCCCCSc1nc(NCCCCCC)nc(NCCN2CCOCC2)n1 [S14N6 D2] | 18.8
57 | CCCCCCCCCCCCCCSc1nc(NCCCCCC)nc(NCCN2CCCC2)n1 [S14N6 D3] | 23.6
58 | CCCCCCCCCCCCCCSc1nc(NCCCCCC)nc(NCCN2CCCCC2)n1 [S14N6 D4] | 2.5
59 | CCCCCCCCCCCCCCSc1nc(NCCCCCC)nc(NCCN2CCN(C)CC2)n1 [S14N6 D5] | 21.7
60 | CCCCCCCCCCCCCCSc1nc(NCCCCCC)nc(NCCCN(C)C)n1 [S14N6 D6] | 30.1
61 | CCCCCCCCCCCCCCSc1nc(NCCCCCC)nc(NCCN(CC)CC)n1 [S14N6 D7] | 20.3
62 | CCCCCCCCCCCCCCSc1nc(NCCCCCC)nc(NCCCN2CCOCC2)n1 [S14N6 D8] | 13.6

From patent publication US20230123334A1, “AMINO LIPID COMPOUND, PREPARATION METHOD THEREFOR, AND APPLICATION THEREOF” (SHENZHEN SHENXIN BIOTECHNOLOGY CO., LTD., priority 2020, published 2023)
